Patent US12180226B2, “Spirotricycle RIPK1 inhibitors and methods of uses thereof” (Merck Sharp & Dohme LLC, priority 2021, dated 2024)
Structures can show the parent of a compound that is named as a salt.

What follows are compounds tested against RIPK1 (recombinant GST-RIPK1 kinase domain, residues 1-327) (Homo sapiens (Human), UniProt Q13546) (assay: RIPK1-ADP-Glo Enzymatic Assay). Conditions: ADP-Glo; 25 nM GST-RIPK1, 300 μM ATP; assay lower limit ~25 nM; read-out: RIPK1 V0 Ec50.
Sequence of RIPK1 (recombinant GST-RIPK1 kinase domain, residues 1-327) (Q13546 1-327): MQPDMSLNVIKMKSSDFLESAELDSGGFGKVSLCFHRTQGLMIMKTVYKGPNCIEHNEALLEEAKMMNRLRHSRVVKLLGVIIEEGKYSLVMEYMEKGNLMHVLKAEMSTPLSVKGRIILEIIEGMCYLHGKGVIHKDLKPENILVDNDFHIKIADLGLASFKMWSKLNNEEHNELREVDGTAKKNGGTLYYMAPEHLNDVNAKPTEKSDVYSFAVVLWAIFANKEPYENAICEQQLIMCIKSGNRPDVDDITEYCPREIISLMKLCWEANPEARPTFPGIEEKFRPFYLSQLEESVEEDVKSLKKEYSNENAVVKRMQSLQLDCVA
Assay type: biochemical
How it was run: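 Compounds titrated 10-pt 1:3 from 100000 nM top (1% DMSO); 30 min preinc w/ 25 nM Sf21-expressed enzyme, RT; start w/ ATP (300 μM final) + dephos-MBP (3 μM); 150 min; ADP-Glo lumi; 4-param fit → EC50.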
Compound `COc1ccc(N2CCC3(CC2)O[C@@H]2CC[C@@H](c4ccccc4)N2C3=O)nc1OC` [Example 11.31, (5′S,7a′R)-1-(5,6-dimethoxypyridin-2-yl)-5′-phenyltetrahydro-3′H-spiro[piperidine-4,2′-pyrrolo[2,1-b][1,3]oxazol]-3′-one] has an EC50 of under 25 nM. `O=C1N2[C@@H](CC[C@H]2c2cc(F)cc(F)c2)OC12CCN(c1nccn3ccnc13)CC2` [Example 13.15, (5′S,7a′R)-5′-(3,5-difluorophenyl)-1-(imidazo[1,2-a]pyrazin-8-yl)tetrahydro-3′H-spiro[piperidine-4,2′-pyrrolo[2,1-b]oxazol]-3′-one, TFA salt] was tested, and the EC50 was 188 nM. For `Cc1cc(C)cc(C(=O)N2CCC3(CC2)O[C@@H]2CC[C@@H](c4ccccc4)N2C3=O)c1` [Example 6.150, (5′S,7a′R)-1-(3,5-dimethylbenzene-1-carbonyl)-5′-phenyl-tetrahydro-3′H-spiro [piperidine-4,2′-pyrrolo[2,1-b][1,3]oxazol]-3′-one], the EC50 was 118 nM. With `O=C(c1c(F)cc(F)cc1F)N1CCC2(CC1)O[C@@H]1CC[C@@H](c3ccccc3)N1C2=O` [Example 5.8, (5′S,7a′R)-5′-phenyl-1-(2,4,6-trifluorobenzene-1-carbonyl)tetrahydro-3′H-spiro[piperidine-4,2′-pyrrolo[2,1-b][1,3]oxazol]-3′-one] the EC50 was under 25 nM. With `O=C(c1cnc(C(F)(F)F)cn1)N1CCC2(CC1)O[C@@H]1CC[C@@H](c3cc(F)cc(F)c3)N1C2=O` [Example 6.1, (5′S,7a′R)-5′-(3,5-Difluorophenyl)-1-(5-(trifluoromethyl)pyrazine-2-carbonyl)tetrahydro-3′H-spiro[piperidine-4,2′-pyrrolo[2,1-b]oxazol]-3′-one] the EC50 was 388 nM. In the case of `N#Cc1cnc(N2CCC3(CC2)S[C@@H]2CC[C@@H](c4ccccc4)N2C3=O)n2ncnc12` [Example 4.146, 5-[(5′S,7a′R)-3′-oxo-5′-phenyltetrahydro-1H,3′H-spiro[piperidine-4,2′-pyrrolo[2,1-b] [1,3]thiazol]-1-yl] [1,2,4]triazolo[1,5-c] pyrimidine-8-carbonitrile], the EC50 is reported as under 25 nM. Work on `N#Cc1cnc(N2CCC3(CC2)O[C@@H]2CC[C@@H](c4cccc(F)c4)N2C3=O)c(F)c1` [Example 4.50, 5-fluoro-6-[(5′S,7a′R)-5′-(3-fluorophenyl)-3′-oxotetrahydro-1H,3′H-spiro[piperidine-4,2′-pyrrolo[2,1-b] [1,3]oxazol]-1-yl]pyridine-3-carbonitrile] yielded an EC50 of 30.7 nM. With `N#Cc1ccc(F)c(C(=O)N2CCC3(CC2)O[C@@H]2CC[C@@H](c4cc(F)cc(F)c4)N2C3=O)c1` [Example 5.16, 3-((5′S,7a′R)-5′-(3,5-difluorophenyl)-3′-oxo-tetrahydro-3′H-spiro [piperidine-4,2′-pyrrolo-[2,1-b]oxazole]-1-carbon-yl)-4-fluorobenzonitrile] the EC50 was under 25 nM. `O=C1N2[C@@H](CC[C@H]2c2cc(F)cc(F)c2)OC12CCN(c1nccn3cccc13)CC2` [Example 13.10, (5′S,7a′R)-5′-(3,5-difluorophenyl)-1-(pyrrolo[1,2-a]pyrazin-1-yl)tetrahydro-3′H-spiro[piperidine-4,2′-pyrrolo[2,1-b]oxazol]-3′-one] showed an EC50 of 36.8 nM. For `O=C1N2[C@@H](CC[C@H]2c2cnccn2)OC12CCN(c1ccnc3c(F)cnn13)CC2` [Example 4.143, (5′S,7a′R)-1-(3-fluoropyrazolo[1,5-a]pyrimidin-7-yl)-5′-(pyrazin-2-yl)tetrahydro-3′H-spiro[piperidine-4,2′-pyrrolo[2,1-b] [1,3]oxazol]-3′-one], the EC50 was under 25 nM. `O=C1N2[C@@H](CC[C@H]2c2ccccc2F)OC12CN(c1cccc3ncnn13)C2` [Example 13.20, (5′S,7a′R)-1-([1,2,4]triazolo[1,5-a]pyridin-5-yl)-5′-(2-fluorophenyl)tetrahydro-3′H-spiro[azetidine-3,2′-pyrrolo[2,1-b]oxazol]-3′-one, TFA salt] showed an EC50 of 24.9 nM. `O=C1N2[C@@H](CC[C@H]2c2cncc(F)c2)OC12CCN(c1ccnc3c(F)cnn13)CC2` [Example 4.84, (5′S,7a′R)-1-(3-fluoropyrazolo[1,5-a]pyrimidin-7-yl)-5′-(5-fluoropyridin-3-yl)tetrahydro-3′H-spiro[piperidine-4,2′-pyrrolo[2,1-b]oxazol]-3′-one, TFA salt] showed an EC50 of 29.3 nM. `O=C(c1nsnc1Cl)N1CCC2(CC1)O[C@@H]1CC[C@@H](c3cc(F)cc(F)c3)N1C2=O` [Example 6.19, (5′S,7a′R)-1-(4-chloro-1,2,5-thiadi-azole-3-carbonyl)-5′-(3,5-difluorophenyl)-tetrahydro-3′H-spiro [piperidine-4,2′-pyrrolo[2,1-b][1,3]oxazol]-3′-one] showed an EC50 of under 25 nM. Work on `O=C(c1ncn2ccccc12)N1CCC2(CC1)O[C@@H]1CC[C@@H](c3cc(F)cc(F)c3)N1C2=O` [Example 5.74, (5′S,7a′R)-5′-(3,5-difluoro-phenyl)-1-(imidazo[1,5-a]-pyridine-1-carbonyl)tetra-hydro-3′H-spiro[piperi-dine-4,2′-pyrrolo[2,1-b]oxazol]-3′-one] yielded an EC50 of 42.4 nM. `N#Cc1cccc(C(=O)N2CCC3(CC2)O[C@@H]2CC[C@@H](c4ccccc4)N2C3=O)c1` [Example 6.153, 3-[(5′S,7a′R)-3′-oxo-5′-phenyltetrahydro-1H,3′H-spiro[piperi-dine-4,2′-pyrrolo[2,1-b][1,3]oxazole]-1-carbonyl]benzonitrile] was tested, and the EC50 was under 25 nM. With `CC(C)(C)NC(=O)c1nc(N2CCC3(CC2)O[C@@H]2CC[C@@H](c4cc(F)cc(F)c4)N2C3=O)ncc1F` [Example 7.15, N-tert-butyl-2-[(5′S,7a′R)-5′-(3,5-difluorophenyl)-3′-oxotetrahydro-1H,3′H-spiro[piperidine-4,2′-pyrrolo[2,1-b][1,3]oxazol]-1-yl]-5-fluoropyrimidine-4-carboxamide] the EC50 was 171 nM. `O=C1N2[C@@H](CC[C@H]2c2ccccc2)OC12CCN(c1ccc(C3COC3)c3ccnn13)CC2` [Example 18.2, (5′S,7a′R)-1-[4-(oxetan-3-yl)pyrazolo[1,5-a]pyridin-7-yl]-5′-phenyltetrahydro-3′H-spiro[piperidine-4,2′-pyrrolo[2,1-b][1,3]oxazol]-3′-one] showed an EC50 of 27.6 nM. For `O=C(c1ncc(F)cc1F)N1CCC2(CC1)O[C@@H]1CC[C@@H](c3cc(F)cc(F)c3)N1C2=O` [Example 6.89, (5′S,7a′R)-5′-(3,5-difluorophenyl)-1-(3,5-difluoropyridine-2-carbonyl)tetrahydro-3′H-spiro[piperidine-4,2′-pyrrolo[2,1-b] [1,3]oxazol]-3′-one], the EC50 was 35.4 nM. `O=C(c1ccoc1)N1CCC2(CC1)O[C@@H]1CC[C@@H](c3cccc(F)c3)N1C2=O` [Example 6.125, (5′S,7a′R)-5′-(3-fluoro-phenyl)-1-(furan-3-carbonyl)tetrahydro-3′H-spiro[piperidine-4,2′-pyrrolo[2,1-b] [1,3]oxazol]-3′-one] gave an EC50 of under 25 nM. Work on `NC(=O)c1cc(N2CCC3(CC2)O[C@@H]2CC[C@@H](c4cc(F)cc(F)c4)N2C3=O)ncn1` [Example 4.185, 6-[(5′S,7a′R)-5′-(3,5-difluorophenyl)-3′-oxotetrahydro-1H,3′H-spiro[piperidine-4,2′-pyrrolo[2,1-b] [1,3]oxazol]-1-yl]pyrimidine-4-carboxamide] yielded an EC50 of 83 nM. For `O=C(c1ccnnc1)N1CCC2(CC1)O[C@@H]1CC[C@@H](c3cc(F)cc(F)c3)N1C2=O` [Example 6.99, (5′S,7a′R)-5′-(3,5-difluorophenyl)-1-(pyridazine-4-carbon-yl)tetrahydro-3′H-spiro[piperidine-4,2′-pyrrolo[2,1-b][1,3]-oxazol]-3′-one], the EC50 was 146 nM. Work on `O=C1N2C(=NC13CCN(c1ccnc4c(F)cnn14)CC3)CC[C@H]2c1cc(F)cc(F)c1` [Example 4.79, (S)-5′-(3,5-difluorophenyl)-1-(3-fluoropyrazolo[1,5-a]pyrimidin-7-yl)-6′,7′-dihydro-3′H,5′H-spiro[piperidine-4,2′-pyrrolo[1,2-a]imidazol]-3′-one] yielded an EC50 of under 25 nM. `O=C1N2[C@@H](CC[C@H]2c2cc(F)cc(F)c2)OC12CCN(C(c1ccccc1)C(F)F)CC2` (single isomer, unassigned) [Example 22.2, (5′S,7a′R)-1-(2,2-Difluoro-1-phenylethyl)-5′-(3,5-difluorophenyl)tetrahydro-3′H-spiro[piperidine-4,2′-pyrrolo[2,1-b]oxazol]-3′-one] showed an EC50 of 243 nM. With `O=C1N2[C@@H](CC[C@H]2c2ccccc2)OC12CCN(c1cccc3ncnn13)CC2` [Example 13.1, (5′S,7a′R)-1-([1,2,4]Triazolo[1,5-a]pyridin-5-yl)-5′-phenyltetrahydro-3′H-spiro[piperidine-4,2′-pyrrolo[2,1-b]oxazol]-3′-one, TFA] the EC50 was 26.8 nM. Work on `N#Cc1cnc(N2CC3(C2)O[C@@H]2CC[C@@H](c4ccccc4F)N2C3=O)nc1` [Example 4.119, 2-((5′S,7a′R)-5′-(2-fluorophenyl)-3′-oxotetrahydro-3′H-spiro[azetidine-3,2′-pyrrolo[2,1-b]oxazol]-1-yl)pyrimidine-5-carbonitrile] yielded an EC50 of 537 nM. Compound `O=C1N2[C@@H](CC[C@H]2c2ccccc2)OC12CN(c1ncnc3ccnn13)C2` [Example 4.137, (5′S,7a′R)-5′-phenyl-1-(pyrazolo[1,5-a] [1,3,5]triazin-4-yl)tetrahydro-3′H-spiro[azetidine-3,2′-pyrrolo[2,1-b] [1,3]oxazol]-3′-one] has an EC50 of 235 nM. Compound `COc1ccnc(C(=O)N2CCC3(CC2)O[C@@H]2CC[C@@H](c4cc(F)cc(F)c4)N2C3=O)c1` [Example 6.91, (5′S,7a′R)-5′-(3,5-difluorophenyl)-1-(4-methoxypyridine-2-carbonyl)tetrahydro-3′H-spiro[piperidine-4,2′-pyrrolo[2,1-b] [1,3]oxazol]-3′-one] has an EC50 of 706 nM.
